# US12404241B2 (Celgene Corporation, priority 2018, dated 2025)
# Structures can show the parent of a compound that is named as a salt.
# Target: T1, AR (Homo sapiens, UniProt P10275)
# T1 construct: endogenous in cells; host or cells: VCaP cells
# T1 sequence (P10275 1-920): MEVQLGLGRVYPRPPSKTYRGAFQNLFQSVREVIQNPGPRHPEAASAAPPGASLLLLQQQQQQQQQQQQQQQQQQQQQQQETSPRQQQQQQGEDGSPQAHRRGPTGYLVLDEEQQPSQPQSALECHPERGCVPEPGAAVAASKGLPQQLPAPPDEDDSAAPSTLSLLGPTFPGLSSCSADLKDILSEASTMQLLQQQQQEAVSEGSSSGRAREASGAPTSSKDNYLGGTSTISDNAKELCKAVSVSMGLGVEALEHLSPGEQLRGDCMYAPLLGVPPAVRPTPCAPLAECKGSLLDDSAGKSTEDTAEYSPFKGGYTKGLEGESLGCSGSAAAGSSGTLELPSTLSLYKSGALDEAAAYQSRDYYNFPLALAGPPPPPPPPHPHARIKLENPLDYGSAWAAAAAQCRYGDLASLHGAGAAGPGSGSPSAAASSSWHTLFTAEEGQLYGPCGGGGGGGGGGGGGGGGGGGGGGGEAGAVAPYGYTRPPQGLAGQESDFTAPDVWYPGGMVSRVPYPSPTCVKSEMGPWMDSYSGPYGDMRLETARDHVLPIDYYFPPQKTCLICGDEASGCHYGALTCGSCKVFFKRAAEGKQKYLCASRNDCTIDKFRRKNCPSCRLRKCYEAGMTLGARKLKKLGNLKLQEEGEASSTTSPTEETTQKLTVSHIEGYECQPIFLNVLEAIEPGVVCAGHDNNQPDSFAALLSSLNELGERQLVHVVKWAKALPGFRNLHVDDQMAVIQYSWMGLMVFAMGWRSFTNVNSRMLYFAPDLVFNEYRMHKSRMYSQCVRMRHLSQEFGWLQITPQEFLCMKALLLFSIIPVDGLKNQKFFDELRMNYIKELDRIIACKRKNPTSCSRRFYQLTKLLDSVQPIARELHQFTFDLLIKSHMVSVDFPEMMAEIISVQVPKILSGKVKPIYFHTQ
# Test: VCAP AR Degradation Assay
# Format: cell-based
# Conditions: for Y (AR degradation efficiency, % of DMSO control): class symbols *; for DC50: class symbols A-C, read-out: DC50
# Method in brief: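 VCaP cells treated 24 h at 37 °C with a 10-point 1:3 series (top 5 μM final; 0.1% DMSO control). Lysate AR measured by sandwich ELISA, normalized to DMSO as percent of control; DC50, EC50 and lowest AR level (Y) from four-parameter logistic fit.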
Structure (SMILES),"Y (AR degradation efficiency, % of DMSO control)",DC50 [nM]
"CC1(C)C(=O)N(c2cnc(C#N)c(C(F)(F)F)c2)C(=S)N1c1ccc(OCCN2CCN(CC(=O)Nc3cc(Cl)cc(NC4CCC(=O)NC4=O)c3)CC2)cc1 (stereo not drawn) [Example 24, 2-(4-(2-(4-(3-(6-cyano-5-(trifluoromethyl)pyridin-3-yl)-5,5-dimethyl-4-oxo-2-thioxoimidazolidin-1-yl)-2-ethylphenoxy)ethyl)-2,2-dimethylpiperazin-1-yl)-N-(3-((2,6-dioxopiperidin-3-yl)amino)-5-fluorophenyl)acetamide hydrochoride]",* (0<Y<=25%),< 100
"CCc1cc(N2C(=S)N(c3cnc(C#N)c(C(F)(F)F)c3)C(=O)C2(C)C)ccc1OCCN1CCN(CC(=O)Nc2cccc(NC3CCC(=O)NC3=O)c2)[C@H](C)C1 (stereo partly drawn) [Example 81, 2-((R)-4-(2-(4-(3-(6-cyano-5-(trifluoromethyl)pyridin-3-yl)-5,5-dimethyl-4-oxo-2-thioxoimidazolidin-1-yl)-2-ethylphenoxy)ethyl)-2-methylpiperazin-1-yl)-N-(3-(2,6-dioxopiperidin-3-ylamino)phenyl)acetamide]",* (0<Y<=25%),< 100
"CCc1cc(N2C(=S)N(c3ccc(C#N)c(C(F)(F)F)c3)C(=O)C2(C)C)ccc1CCCN1CCN(CC(=O)Nc2cccc(NC3CCC(=O)NC3=O)c2)[C@@H](C)C1 (stereo partly drawn) [Example 279, 2-((S)-4-(3-(4-(3-(4-cyano-3-(trifluoromethyl)phenyl)-5,5-dimethyl-4-oxo-2-thioxoimidazolidin-1-yl)-2-ethylphenyl)propyl)-2-methylpiperazin-1-yl)-N-(3-(2,6-dioxopiperidin-3-ylamino)phenyl)acetamide]",* (0<Y<=25%),< 100
"C[C@@H]1CN(CCOc2ccc(N3C(=S)N(c4ccc(C#N)c(Cl)c4)C(=O)C3(C)C)cc2C2CC2)C[C@H](C)N1CC(=O)Nc1cc(Cl)cc(NC2CCC(=O)NC2=O)c1 (stereo partly drawn) [Example 220, 2-((2S,6R)-4-(2-(4-(3-(3-chloro-4-cyanophenyl)-5,5-dimethyl-4-oxo-2-thioxoimidazolidin-1-yl)-2-cyclopropylphenoxy)ethyl)-2,6-dimethylpiperazin-1-yl)-N-(3-chloro-5-(2,6-dioxopiperidin-3-ylamino)phenyl)acetamide]",** (25%<Y<=35%),< 100
"CC1(C)C(=O)N(c2ccc(C#N)c(C(F)(F)F)c2)C(=S)N1c1ccc(OCCN2CCN(CC(=O)Nc3cc(NC4CCC(=O)NC4=O)ccc3Cl)CC2)c(Cl)c1 (stereo not drawn) [Example 20, hydrochloride]",* (0<Y<=25%),< 100
"CCc1cc(N2C(=S)N(c3cnc(C#N)c(C(F)(F)F)c3)C(=O)C23CCC3)ccc1OCCN1CCN(CC(=O)Nc2cccc(NC3CCC(=O)NC3=O)c2)C(C)(C)C1 (stereo not drawn) [Example 134, 2-(4-(2-(4-(7-(6-cyano-5-(trifluoromethyl)pyridin-3-yl)-8-oxo-6-thioxo-5,7-diazaspiro[3.4]octan-5-yl)-2-ethylphenoxy)ethyl)-2,2-dimethylpiperazin-1-yl)-N-(3-(2,6-dioxopiperidin-3-ylamino)phenyl)acetamide]",* (0<Y<=25%),< 100
"CCc1cc(N2C(=S)N(c3ccc(C#N)c(C(F)(F)F)c3)C(=O)C2(C)C)ccc1CCCN1C[C@@H](C)N(CC(=O)Nc2cccc(NC3CCC(=O)NC3=O)c2)C[C@H]1C (stereo partly drawn) [Example 273, 2-((2R,5R)-4-(3-(4-(3-(4-cyano-3-(trifluoromethyl)phenyl)-5,5-dimethyl-4-oxo-2-thioxoimidazolidin-1-yl)-2-ethylphenyl)propyl)-2,5-dimethylpiperazin-1-yl)-N-(3-(2,6-dioxopiperidin-3-ylamino)phenyl)acetamide]",* (0<Y<=25%),< 100
"CC(C)c1cc(N2C(=S)N(c3ccc(C#N)c(C(F)(F)F)c3)C(=O)C2(C)C)ccc1OCCN1C[C@@H](C)N(CC(=O)Nc2cccc(NC3CCC(=O)NC3=O)c2)[C@@H](C)C1 (stereo partly drawn) [Example 170, 2-((2S,6R)-4-(2-(4-(3-(4-cyano-3-(trifluoromethyl)phenyl)-5,5-dimethyl-4-oxo-2-thioxoimidazolidin-1-yl)-2-isopropylphenoxy)ethyl)-2,6-dimethylpiperazin-1-yl)-N-(3-(2,6-dioxopiperidin-3-ylamino)phenyl)acetamide]",* (0<Y<=25%),< 100
"CC(F)(F)c1cc(N2C(=S)N(c3cnc(C#N)c(C(F)(F)F)c3)C(=O)C2(C)C)ccc1OCCN1CCN(CC(=O)Nc2cc(Cl)cc(NC3CCC(=O)NC3=O)c2)CC1 (stereo not drawn) [Example 62, N-(3-chloro-5-(2,6-dioxopiperidin-3-ylamino)phenyl)-2-(4-(2-(4-(3-(6-cyano-5-(trifluoromethyl)pyridin-3-yl)-5,5-dimethyl-4-oxo-2-thioxoimidazolidin-1-yl)-2-(1,1-difluoroethyl)phenoxy)ethyl)piperazin-1-yl)acetamide]",* (0<Y<=25%),< 100
"CC(C)c1cc(N2C(=S)N(c3ccc(C#N)c(C(F)(F)F)c3)C(=O)C2(C)C)ccc1OCCN1C[C@@H](C)N(CC(=O)Nc2cc(F)cc(NC3CCC(=O)NC3=O)c2)[C@@H](C)C1 (stereo partly drawn) [Example 213, 2-((2S,6R)-4-(2-(4-(3-(4-cyano-3-(trifluoromethyl)phenyl)-5,5-dimethyl-4-oxo-2-thioxoimidazolidin-1-yl)-2-isopropylphenoxy)ethyl)-2,6-dimethylpiperazin-1-yl)-N-(3-(2,6-dioxopiperidin-3-ylamino)-5-fluorophenyl)acetamide]",* (0<Y<=25%),< 100
"CCc1cc(N2C(=S)N(c3cnc(C#N)c(C(F)(F)F)c3)C(=O)C2(C)C)ccc1OCCN1CCN(CC(=O)Nc2cc(F)cc(NC3CCC(=O)NC3=O)c2)[C@H](C)C1 (stereo partly drawn) [Example 75, 2-((R)-4-(2-(4-(3-(6-cyano-5-(trifluoromethyl)pyridin-3-yl)-5,5-dimethyl-4-oxo-2-thioxoimidazolidin-1-yl)-2-ethylphenoxy)ethyl)-2-methylpiperazin-1-yl)-N-(3-(2,6-dioxopiperidin-3-ylamino)-5-fluorophenyl)acetamide]",* (0<Y<=25%),< 100
"CC1(C)C(=O)N(c2cnc(C#N)c(C(F)(F)F)c2)C(=S)N1c1ccc(OCCN2CCN(CC(=O)Nc3cc(Cl)cc(NC4CCC(=O)NC4=O)c3)CC2)c(CCF)c1 (stereo not drawn) [Example 72, N-(3-chloro-5-(2,6-dioxopiperidin-3-ylamino)phenyl)-2-(4-(2-(4-(3-(6-cyano-5-(trifluoromethyl)pyridin-3-yl)-5,5-dimethyl-4-oxo-2-thioxoimidazolidin-1-yl)-2-(2-fluoroethyl)phenoxy)ethyl)piperazin-1-yl)acetamide]",* (0<Y<=25%),< 100
"CC(C)c1cc(N2C(=S)N(c3ccc(C#N)c(C(F)(F)F)c3)C(=O)C2(C)C)cnc1OCCN1C[C@@H](C)N(CC(=O)Nc2cccc(NC3CCC(=O)NC3=O)c2)C[C@H]1C (stereo partly drawn) [Example 230, 2-((2R,5R)-4-(2-(5-(3-(4-cyano-3-(trifluoromethyl)phenyl)-5,5-dimethyl-4-oxo-2-thioxoimidazolidin-1-yl)-3-isopropylpyridin-2-yloxy)ethyl)-2,5-dimethylpiperazin-1-yl)-N-(3-(2,6-dioxopiperidin-3-ylamino)phenyl)acetamide]",*** (35%<Y<50%),500 to 1000
"CC(C)c1cc(N2C(=S)N(c3cnc(C#N)c(C(F)(F)F)c3)C(=O)C2(C)C)ccc1OCCN1C[C@@H](C)N(CC(=O)Nc2cccc(NC3CCC(=O)NC3=O)c2)[C@@H](C)C1 (stereo partly drawn) [Example 180, 2-((2S,6R)-4-(2-(4-(3-(6-cyano-5-(trifluoromethyl)pyridin-3-yl)-5,5-dimethyl-4-oxo-2-thioxoimidazolidin-1-yl)-2-isopropylphenoxy)ethyl)-2,6-dimethylpiperazin-1-yl)-N-(3-(2,6-dioxopiperidin-3-ylamino)phenyl)acetamide]",* (0<Y<=25%),< 100
"C[C@@H]1CN(CCOc2ncc(N3C(=S)N(c4ccc(C#N)c(C(F)(F)F)c4)C(=O)C3(C)C)cc2C2CC2)C[C@H](C)N1CC(=O)Nc1cccc(NC2CCC(=O)NC2=O)c1 (stereo partly drawn) [Example 228, 2-((2S,6R)-4-(2-(5-(3-(4-cyano-3-(trifluoromethyl)phenyl)-5,5-dimethyl-4-oxo-2-thioxoimidazolidin-1-yl)-3-cyclopropylpyridin-2-yloxy)ethyl)-2,6-dimethylpiperazin-1-yl)-N-(3-(2,6-dioxopiperidin-3-ylamino)phenyl)acetamide]",* (0<Y<=25%),< 100
